Tests used:
[1] = molecular target: T1, α1G T-type calcium channel (Homo sapiens, UniProt O43497); test: Assay for % inhibiting activity against T-type calcium channel using FDSS6000 (fluo-3 calcium imaging, KCl activation); assay type: cell-based; details: 10 μM; HEK293 cells stably expressing α1G T-type calcium channel and Kir2.1; compounds of the examples
T1 construct: host or cells: HEK293
Outline: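 Percent inhibition derived from […] area against untreated control (100%), after 75 s compound pre-exposure and 75 mM KCl activation. Cells: HEK293 with stable α1G plus Kir2.1, fluo-3/AM-labelled (5 μM), assayed in pH 7.4 HEPES containing 10 mM CaCl2.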

[2] = molecular target: T1, α1G T-type calcium channel; test: Electrophysiological whole cell patch clamp measurement of T-type calcium channel current in HEK293 cells; assay type: cell-based; details: HEK293 cells expressing α1G; for HEK293cell (% Inhibition) 10 μM: inhibition of peak current; for IC50: read-out: IC50 (a1G)
Experimental: In the present invention, in order to examine an efficient inhibitor against the T-type calcium channel, a primary assay for T-type calcium channel inhibiting activity was conducted by a high-efficient assay using FDSS6000, wherein mammal HEK293 cell lines (originated from human kidney carcinoma cells) that specifically express α1G of the T-type calcium channel was used for primary assay. Through the primary assay, compounds that show meaningful inhibition effects were selected. The selected compounds were used in a second assay for T-type calcium channel inhibiting activity using an electrophysiological whole cell patch clamp method, wherein mammal HEK293 cell lines (originated from human kidney carcinoma cells) that specifically express α1G of the T-type calcium channel was used for the second assay. Mibefradil, which had been developed as a T-type calcium channel inhibitor, was used as a reference.
10% Fetal bovine serum (FBS) and 1% penicillin/streptomycin (v/v) were added to Dulbecco's modified Eagle's medium (DMEM), to be used as a media solution. The cells were cultured in an incubator under a wet condition of 95% air/5% CO2 and a temperature of 36.5° C. The media solution was refreshed every 3 or 4 days, and the cells were sub-cultured every week. Only the cells that expressed α1G T-type calcium channel were cultured using a G-418 (0.5 mg/ml) solution. The recording of the cells used in the T-type calcium channel activity analysis was conducted at 2-7 days after the cells were culturing on a cover slip coated with poly-L-lysine (0.5 mg/ml) when conducting every sub-culture. For analysis at a single cell level, the T-type calcium channel current was measured by an electrophysiological whole cell patch clamp method using EPC-9 amplifier (HEKA, German).
As solutions for analyzing T-type calcium channel activity, a solution including NaCl 140 mM, CaCl2 2 mM, and HEPES10 mM (pH 7.4, Sigma; 4-(2-hydroxyethyl)piperazine-1-ethanesulfonic acid) was used as an extracellular solution, and a solution including KCl 130 mM, HEPES 10 mM (Sigma), EGTA 11 mM (ethylene glycol-bis(2-aminoethylether)-N,N,N′,N′-tetraacetic acid, Sigma), and MgATP 5 mM (pH 7.4, Sigma) was used as an intracellular solution. The protocol for T-type calcium channel activity that is activated at low voltage is as follows. A micro-glass electrode with resistance of 3-4 MΩ wherein the above-prepared intracellular solution was filled was pricked into a single cell, to make a whole-cell recording mode. Thereafter, the cell membrane potential was fixed to −100 mV, and then the inward current due to the T-type calcium channel activity when hypopolarizing to −30 mV (50 ms duration) was measured every 10 seconds.
Each compound to be tested was dissolved in 100% dimethylsulfoxide (DMSO) to make a 10 mM stock solution. The effect of the compound on the T-type calcium channel current compound was initially examined in the stock solution with the 1000-times diluted concentration of 10 μM (containing 0.1% DMSO) and then examined in the solution with the concentration for IC50 measurement (mostly 0.1 to 100 μM), to obtain an IC50 value. More specifically, the cells were treated in each compound together with the extracellular solution for 30 to 60 seconds, and the inhibition level of peak current induced by the compound was calculated as a percentage, to obtain the % inhibition value as shown in Table 4.

T1 sequence (O43497 whole entry): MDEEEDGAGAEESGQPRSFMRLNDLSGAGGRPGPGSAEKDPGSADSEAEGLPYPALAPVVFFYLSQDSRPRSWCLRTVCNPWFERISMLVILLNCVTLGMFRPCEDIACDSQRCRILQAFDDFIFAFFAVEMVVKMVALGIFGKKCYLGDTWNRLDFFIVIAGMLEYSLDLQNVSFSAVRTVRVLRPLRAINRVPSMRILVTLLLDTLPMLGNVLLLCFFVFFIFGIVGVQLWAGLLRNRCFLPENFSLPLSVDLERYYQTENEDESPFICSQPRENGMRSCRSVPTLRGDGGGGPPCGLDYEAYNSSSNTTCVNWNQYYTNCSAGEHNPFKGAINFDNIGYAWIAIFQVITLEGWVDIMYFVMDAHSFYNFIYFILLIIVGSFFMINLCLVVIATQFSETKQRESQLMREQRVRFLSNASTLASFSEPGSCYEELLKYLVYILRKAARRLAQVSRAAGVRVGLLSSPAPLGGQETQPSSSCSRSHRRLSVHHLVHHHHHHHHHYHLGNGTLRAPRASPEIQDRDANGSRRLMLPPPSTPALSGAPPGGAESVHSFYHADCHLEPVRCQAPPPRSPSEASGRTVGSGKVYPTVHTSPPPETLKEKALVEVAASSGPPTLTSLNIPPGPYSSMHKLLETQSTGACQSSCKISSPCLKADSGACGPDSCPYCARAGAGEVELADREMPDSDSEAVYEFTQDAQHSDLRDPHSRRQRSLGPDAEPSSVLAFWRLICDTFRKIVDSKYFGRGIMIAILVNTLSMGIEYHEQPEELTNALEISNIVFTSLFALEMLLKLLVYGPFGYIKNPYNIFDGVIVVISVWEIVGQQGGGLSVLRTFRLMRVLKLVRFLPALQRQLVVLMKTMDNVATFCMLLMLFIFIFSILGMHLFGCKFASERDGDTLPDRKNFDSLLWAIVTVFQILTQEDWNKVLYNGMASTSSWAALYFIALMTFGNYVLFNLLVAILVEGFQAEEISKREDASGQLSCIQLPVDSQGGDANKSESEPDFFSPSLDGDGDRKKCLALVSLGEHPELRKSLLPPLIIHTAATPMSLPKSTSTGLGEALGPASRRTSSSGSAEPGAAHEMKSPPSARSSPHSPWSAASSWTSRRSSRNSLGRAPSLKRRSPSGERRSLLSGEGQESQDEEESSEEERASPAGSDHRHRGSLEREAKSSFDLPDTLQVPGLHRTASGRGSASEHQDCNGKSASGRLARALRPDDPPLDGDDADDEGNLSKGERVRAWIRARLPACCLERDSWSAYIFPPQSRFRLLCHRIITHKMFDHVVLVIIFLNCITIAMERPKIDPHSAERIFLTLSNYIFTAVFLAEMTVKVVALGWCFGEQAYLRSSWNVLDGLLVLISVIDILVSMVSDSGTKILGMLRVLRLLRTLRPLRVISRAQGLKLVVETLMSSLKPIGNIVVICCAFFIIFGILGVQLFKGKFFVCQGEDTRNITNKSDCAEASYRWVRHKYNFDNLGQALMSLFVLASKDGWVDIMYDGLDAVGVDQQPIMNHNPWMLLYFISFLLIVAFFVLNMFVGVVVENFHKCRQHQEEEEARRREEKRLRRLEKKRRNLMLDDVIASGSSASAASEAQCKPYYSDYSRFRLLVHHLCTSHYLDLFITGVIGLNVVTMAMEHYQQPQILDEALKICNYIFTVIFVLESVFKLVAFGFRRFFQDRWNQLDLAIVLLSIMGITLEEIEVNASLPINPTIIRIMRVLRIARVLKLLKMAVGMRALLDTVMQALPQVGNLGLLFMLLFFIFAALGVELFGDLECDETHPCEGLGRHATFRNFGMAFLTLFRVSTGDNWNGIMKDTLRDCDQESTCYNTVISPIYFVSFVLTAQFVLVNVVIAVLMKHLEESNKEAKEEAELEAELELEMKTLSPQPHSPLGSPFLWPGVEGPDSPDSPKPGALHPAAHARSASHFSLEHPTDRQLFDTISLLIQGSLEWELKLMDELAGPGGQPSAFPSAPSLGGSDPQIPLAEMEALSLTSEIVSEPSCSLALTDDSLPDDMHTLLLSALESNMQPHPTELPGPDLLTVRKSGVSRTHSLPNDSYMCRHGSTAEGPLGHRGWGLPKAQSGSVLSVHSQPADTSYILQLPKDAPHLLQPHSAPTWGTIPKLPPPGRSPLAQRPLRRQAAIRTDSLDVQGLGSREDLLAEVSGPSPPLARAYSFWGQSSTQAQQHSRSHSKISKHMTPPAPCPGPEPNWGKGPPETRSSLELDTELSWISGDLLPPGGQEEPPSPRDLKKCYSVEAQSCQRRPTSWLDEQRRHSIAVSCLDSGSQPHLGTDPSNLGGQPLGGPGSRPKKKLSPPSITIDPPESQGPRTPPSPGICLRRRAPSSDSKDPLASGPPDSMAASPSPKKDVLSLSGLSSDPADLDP

Substance | FDSS (% inhibition)/10uM [1] [%] | HEK293cell (% Inhibition) 10 μM [2] [%] | IC50 [2] [nM]
(2-cyclohexylimino-3-methyl-1,3-thiazolidine-4-yl)-N-(3-trifluoromethylphenyl)-acetamide hydrochloride [KHG24084] | 58.61 | 82.2 ± 1.4 | 2790 ± 110
(2-cyclohexylimino-3-methyl-1,3-thiazolidine-4-yl)-N-(4-bromophenyl)-acetamide hydrochloride [KHG23354] | 54.26 | 83.0 ± 1.4 | 2470 ± 180
(2-cyclohexylimino-3-methyl-1,3-thiazolidine-4-yl)-N-(4-chloro-2-fluorophenyl)-acetamide hydrochloride [KHG23361] | 62.4 | 71.4 ± 3.4 | 4090 ± 700
(2-cyclohexylimino-3-methyl-1,3-thiazolidine-4-yl)-N-(4-chlorobenzyl)-acetamide hydrochloride [KHG24113] | 54.13 | 64.8 ± 1.4 | 5400 ± 410
(2-cyclohexylimino-3-methyl-1,3-thiazolidine-4-yl)-N-(4-chlorophenyl)-acetamide hydrochloride [KHG23362] | 66.17 | 89.3 ± 0.9 | 530 ± 30
(2-cyclohexylimino-3-methyl-1,3-thiazolidine-4-yl)-N-(4-fluorophenyl)-acetamide hydrochloride [KHG23210] | 46.69 | 59.6 ± 1.5 | 6500 ± 500
(2-cyclohexylimino-3-methyl-1,3-thiazolidine-4-yl)-N-(4-isopropylphenyl)-acetamide hydrochloride [KHG23364] | 53 | 97.0 ± 0.7 | 870 ± 180
(2-cyclohexylimino-3-methyl-1,3-thiazolidine-4-yl)-N-(4-methylphenyl)-acetamide hydrochloride [KHG24077] | 46.41 | 57.0 ± 1.5 | 7220 ± 360
(2-cyclohexylimino-3-methyl-1,3-thiazolidine-4-yl)-N-(4-n-butylphenyl)-acetamide hydrochloride [KHG23365] | 60.16 | 97.6 ± 0.5 | 600 ± 60
(2-cyclohexylimino-3-methyl-1,3-thiazolidine-4-yl)-N-(4-phenoxyphenyl)-acetamide hydrochloride [KHG23355] | 58.95 | 88.1 ± 2.0 | 1510 ± 170
(2-cyclohexylimino-3-methyl-1,3-thiazolidine-4-yl)-N-(4-trifluoromethylphenyl)-acetamide hydrochloride [KHG24074] | 65.2 | 94.7 ± 0.5 | 660 ± 60
[2-(1-adamantyl)imino-3-methyl-1,3-thiazolidine-4-yl]-N-(3,5-ditrifluoromethylphenyl)-acetamide hydrochloride [KHG24241] | 70.68 | 92.2 ± 0.5 | 170 ± 20
[2-(1-adamantyl)imino-3-methyl-1,3-thiazolidine-4-yl]-N-(4-bromophenyl)-acetamide hydrochloride [KHG24239] | 69.55 | 96.5 ± 1.3 | 610 ± 70
[2-(1-adamantyl)imino-3-methyl-1,3-thiazolidine-4-yl]-N-(4-chlorophenyl)-acetamide hydrochloride [KHG24238] | 73.31 | 95.9 ± 1.8 | 530 ± 20
[2-(1-adamantyl)imino-3-methyl-1,3-thiazolidine-4-yl]-N-(4-ethylphenyl)-acetamide hydrochloride [KHG24236] | 69.55 | 94.4 ± 0.6 | 230 ± 20
[2-(1-adamantyl)imino-3-methyl-1,3-thiazolidine-4-yl]-N-(4-fluorophenyl)-acetamide hydrochloride [KHG24237] | 74.81 | 91.2 ± 3.1 | 770 ± 30
[2-(1-adamantyl)imino-3-methyl-1,3-thiazolidine-4-yl]-N-(4-isopropylphenyl)-acetamide hydrochloride [KHG24243] | 60.9 | 97.0 ± 1.1 | 50 ± 10
[2-(1-adamantyl)imino-3-methyl-1,3-thiazolidine-4-yl]-N-(4-methylphenyl)-acetamide hydrochloride [KHG24235] | 61.65 | 93.2 ± 1.9 | 1170 ± 80
[2-(1-adamantyl)imino-3-methyl-1,3-thiazolidine-4-yl]-N-(4-phenoxyphenyl)-acetamide hydrochloride [KHG24244] | 53.67 | 90.6 ± 3.6 | 920 ± 80
[2-(1-adamantyl)imino-3-methyl-1,3-thiazolidine-4-yl]-N-(4-trifluoromethylphenyl)-acetamide hydrochloride [KHG24240] | 70.68 | 96.2 ± 1.1 | 230 ± 20
[2-(1-adamantyl)imino-3-methyl-1,3-thiazolidine-4-yl]-N-(5-chloro-2-fluorophenyl)-acetamide hydrochloride [KHG24242] | 53.38 | 85.2 ± 1.3 | 970 ± 140
[2-(1-adamantylimino)-3-cyclopropyl-1,3-thiazolidine-4-yl]-N-(4-isopropylphenyl)-acetamide hydrochloride [KHG24788] | 72.88 | 95.3 ± 0.4 | 310 ± 20
[2-(1-adamantylimino)-3-cyclopropyl-1,3-thiazolidine-4-yl]-N-(4-n-butylphenyl)-acetamide hydrochloride [KHG24789] | 78.21 | 95.1 ± 0.7 | 190 ± 20
[2-(1-adamantylimino)-3-cyclopropyl-1,3-thiazolidine-4-yl]-N-(4-phenoxyphenyl)-acetamide hydrochloride [KHG24800] | 83.5 | 95.4 ± 0.5 | 430 ± 70
[2-(1-adamantylimino)-3-cyclopropyl-1,3-thiazolidine-4-yl]-N-(4-trifluoromethylphenyl)-acetamide hydrochloride [KHG24790] | 73.05 | 94.8 ± 0.9 | 240 ± 10
[2-(1-adamantylimino)-3-ethyl-1,3-thiazolidine-4-yl]-N-(4-ethylphenyl)-acetamide hydrochloride [KHG24847] | 72.23 | 95.5 ± 2.7 | 350 ± 10
[2-(1-adamantylimino)-3-ethyl-1,3-thiazolidine-4-yl]-N-(4-trifluoromethylphenyl)-acetamide hydrochloride [KHG24821] | 73.69 | 92.3 ± 1.8 | 360 ± 20
[2-(1-adamantylimino)-3-n-propyl-1,3-thiazolidine-4-yl]-N-(4-chloro-2-fluorophenyl)-acetamide hydrochloride [KHG24816] | 80.83 | 95.6 ± 0.8 | 510 ± 10

Reference: patent publication US7998989B2, “2-Imino-1,3-thiazoline-based compounds and T-type calcium channel inhibitors containing the same” (Korea Institute of Science and Technology, priority 2007, dated 2011)
